According to US20050112713A1, “Methods of using Fab I and compounds modulating Fab I activity” (Affinium Pharmaceuticals, Inc., priority 1996, published 2005):
Read-outs that look alike come from different tables or passages of the source.

Experiments:
[1] = target: T1, S. aureus Fab I (Staphylococcus aureus, UniProt Q6GI75); experiment: Inhibition of non his tagged (native) Fab I by saturated fatty acyl CoA's, NADH consumption at 340 nm; type: biochemical; details: read-out: Mean IC50 (uM) (n = 2), 1 mM crotonoyl CoA and 1 mM NADH, 100 mM NaADA, pH 6.5
T1 construct: made in house; host or cells: E. coli
T1 sequence (Q6GI75 1-256): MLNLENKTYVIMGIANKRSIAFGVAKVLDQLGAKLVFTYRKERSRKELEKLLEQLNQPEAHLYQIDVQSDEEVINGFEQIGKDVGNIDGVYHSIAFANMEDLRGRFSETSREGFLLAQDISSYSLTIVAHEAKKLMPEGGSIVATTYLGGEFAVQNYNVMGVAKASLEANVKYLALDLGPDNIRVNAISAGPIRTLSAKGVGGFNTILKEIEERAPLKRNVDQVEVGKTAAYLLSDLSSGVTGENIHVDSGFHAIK
Method: (§1) Crotonoyl CoA was used as the substrate for Fab I and all activity measurements were based on a decrease in absorbance at 340 nm due to the utilization of NADH (FIG. 1). All assays were performed with 100 mM NaADA, pH 6.5 buffer. Acyl-CoA inhibition data was performed in the presence of 1 mM crotonoyl CoA and 1 mM NADH.

[2] = target: T1, S. aureus Fab I; experiment: Kinetic characterization of native S. aureus Fab I (substrates, mode of inhibition); type: biochemical
Method: as §1
(§2) However, studies performed at pH 6.0-7.0 with the native enzyme illustrated a sequential mechanistic pattern and kinetic parameters resulting from these studies indicated no overt change in either magnitude or kinetic mechanism. Thus the His10 tagged Fab I behaved distinctly from native Fab I enzyme.

[3] = target: T2, E. coli Fab I (Escherichia coli, UniProt P0AEK4); experiment: Kinetic constants of E. coli Fab I for its substrates; type: biochemical
T2 sequence (P0AEK4 whole entry): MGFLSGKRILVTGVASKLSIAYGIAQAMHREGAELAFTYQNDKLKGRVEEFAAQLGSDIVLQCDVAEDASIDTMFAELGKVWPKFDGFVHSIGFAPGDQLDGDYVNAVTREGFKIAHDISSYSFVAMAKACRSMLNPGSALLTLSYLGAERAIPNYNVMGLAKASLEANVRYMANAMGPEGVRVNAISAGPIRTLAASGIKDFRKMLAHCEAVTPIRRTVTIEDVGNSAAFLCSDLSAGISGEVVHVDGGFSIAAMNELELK
From the text: A diazaborine derivative may be used as a positive control, this should be readily available via a 2 step synthesis with publicly available starting materials using methods known in the art. Test compounds may be added to this assay to determine whether they agonize or antagonize enzymatic activity.

[4] = target: T2, E. coli Fab I; details: cited from earlier work
[5] = substrate: C/C=C/C(=O)SCCNC(=O)CCNC(=O)[C@H](O)C(C)(C)COP(=O)(O)OP(=O)(O)OC[C@H]1O[C@@H](n2cnc3c(N)ncnc32)[C@H](O)[C@@H]1OP(=O)(O)O; experiment: Kinetic characterization of native S. aureus Fab I (substrates, mode of inhibition); type: biochemical, Staphylococcus aureus; details: other: S. aureus Fab I
Method: as §1, §2

CCCC(=O)SCCNC(=O)CCNC(=O)[C@H](O)C(C)(C)COP(=O)(O)OP(=O)(O)OC[C@H]1O[C@@H](n2cnc3c(N)ncnc32)[C@H](O)[C@@H]1OP(=O)(O)O [n-Butyryl]
IC50 [1]: > 1000 µM

NC(=O)C1=CN([C@@H]2O[C@H](COP(=O)(O)OP(=O)(O)OC[C@H]3O[C@@H](n4cnc5c(N)ncnc54)[C@H](O)[C@@H]3O)[C@@H](O)[C@H]2O)C=CC1 [NADH]
Kmapp for NADH relative to NADPH ([2]; S. aureus Fab I): approximately 30 fold
Km ([2]; S. aureus Fab I, read-out: Km for NADH): ~410 µM
KNADH ([2]; native S. aureus Fab I): 0.7 mM
KiNADH ([2]; native S. aureus Fab I): 0.2 mM
KNADH [3]: 0.01 mM
Km ([3]; read-out: Km for NADH): 13 µM

CCCCCC(=O)SCCNC(=O)CCNC(=O)C(O)C(C)(C)COP(=O)(O)OP(=O)(O)OC[C@H]1O[C@@H](n2cnc3c(N)ncnc32)[C@H](O)[C@@H]1OP(=O)(O)O (stereo partly drawn) [n-Hexanoyl]
IC50 [1]: 576 µM

CCCCCCCCCCCCCC(=O)SCCNC(=O)CCNC(=O)[C@H](O)C(C)(C)COP(=O)(O)OP(=O)(O)OC[C@H]1O[C@@H](n2cnc3c(N)ncnc32)[C@H](O)[C@@H]1OP(=O)(O)O [Myristoyl]
IC50 [1]: 23.1 µM

CCCCCCCCCC(=O)SCCNC(=O)CCNC(=O)C(O)C(C)(C)COP(=O)(O)OP(=O)(O)OC[C@H]1O[C@@H](n2cnc3c(N)ncnc32)[C@H](O)[C@@H]1OP(=O)(O)O (stereo partly drawn) [n-Decanoyl]
IC50 [1]: 226 µM

Apo-ACP: apo acyl carrier protein, inhibitor of Fab I
Mode of inhibition versus NADH ([2]; S. aureus Fab I): uncompetitive
Mode of inhibition versus crotonoyl CoA ([2]; S. aureus Fab I): competitive

CC(=O)SCCNC(=O)CCNC(=O)[C@H](O)C(C)(C)COP(=O)(O)OP(=O)(O)OC[C@H]1O[C@@H](n2cnc3c(N)ncnc32)[C@H](O)[C@@H]1OP(=O)(O)O [Acetyl]
IC50 [1]: > 1000 µM

C/C=C/C(=O)SCCNC(=O)CCNC(=O)[C@H](O)C(C)(C)COP(=O)(O)OP(=O)(O)OC[C@H]1O[C@@H](n2cnc3c(N)ncnc32)[C@H](O)[C@@H]1OP(=O)(O)O [CCA, crotonoyl CoA]
KCCA ([4]; E. coli Fab I, Bergler et al 1994): 2.7 mM
Km ([4]; substrate of FAB I activity assay (Bergler et al 1994)): 2700 µM
KCCA ([2]; native S. aureus Fab I): 2.5 mM

CCCCCCCC(=O)SCCNC(=O)CCNC(=O)C(O)C(C)(C)COP(=O)(O)OP(=O)(O)OC[C@H]1O[C@@H](n2cnc3c(N)ncnc32)[C@H](O)[C@@H]1OP(=O)(O)O (stereo partly drawn) [n-Octanoyl]
IC50 [1]: 248 µM

B1: S. aureus Fab I (Staphylococcus aureus subsp. aureus MRSA252) (protein)
chain: MLNLENKTYVIMGIANKRSIAFGVAKVLDQLGAKLVFTYRKERSRKELEKLLEQLNQPEAHLYQIDVQSDEEVINGFEQIGKDVGNIDGVYHSIAFANMEDLRGRFSETSREGFLLAQDISSYSLTIVAHEAKKLMPEGGSIVATTYLGGEFAVQNYNVMGVAKASLEANVKYLALDLGPDNIRVNAISAGPIRTLSAKGVGGFNTILKEIEERAPLKRNVDQVEVGKTAAYLLSDLSSGVTGENIHVDSGFHAIK
notes: made in house; host or cells: E. coli
Km [5]: 2500 µM
